Measured values taken from publication PMC5874699, “Antimicrobial and Antibiofilm Activity of UP-5, an Ultrashort Antimicrobial Peptide Designed Using Only Arginine and Biphenylalanine” (Pharmaceuticals, 2018).
pIC50: −log10 of the molar value. Like-named read-outs stand apart in the source and are kept apart here. Square brackets hold non-standard residues; d marks the D form. Peptide text beside a SMILES is read from it. Bip = N[C@@H](Cc1ccc(-c2ccccc2)cc1)C(=O)O

Legend:
[1] = tested on: Staphylococcus aureus (ATCC 29213); assay type: cell-based; details: ATCC 29213, 24 h
Source text: (§1) All bacterial susceptibility, biofilm, and synergistic assays of peptides, antibiotics, and peptides-antibiotics combinations used bacterial strains obtained from the American Type Tissue Culture Collection (ATCC, Manassas, VA, USA) that states the mechanism of resistance for each strain according to ATCC number. Gram-positive bacteria were represented by five strains, the wild type strain Staphylococcus aureus (ATCC 29213) and methicillin-resistant S. aureus (MRSA) (ATCC 33591) in addition to clinically isolated strains S. aureus (ATCC BAA-41& 43300) and Enterococcus faecalis (ATCC BAA-2316). The Gram-negative bacteria strains were represented by wild type strains of Escherichia coli (ATCC 25922 & 35218) and Pseudomonas aeruginosa (ATCC 27853) as well as the clinically isolated multidrug-resistant strain P. aeruginosa (ATCC BAA-2114). The bacteria were cultured onto Muller Hinton Agar (Scharlab, S.L, Barcelona, Spain). Mueller Hinton Broth (Oxoid Ltd., Basingstoke, UK) was used to prepare all bacterial suspensions and to dissolve the peptides and the antibiotics. The assay was performed in sterile 96-well polypropylene microtiter plates.
(§2) All bacterial susceptibility assays were conducted according to the microbroth dilution method outlined by the Clinical and Laboratory Standards Institute (CLSI) guidelines.
(§3) Briefly, pre-sterilized MHB was used as a growth medium for organisms obtained from stock media with glycerol. Bacterial cells were grown overnight in MHB and diluted to 10^6 CFU/mL in the same medium prior to use. For peptide, serial concentrations in the range of 0.5–100 μM were prepared. Then, 50 μL of each peptide concentration and 50 µL of diluted bacterial suspension were added to each well of a 96-well microtiter plate. Peptide solutions were prepared by dissolving the peptide in sterile MHB. Then, the plates were incubated overnight in a humidified atmosphere, and at 37 °C. Bacterial growth was determined by measuring the optical density (OD) at λ = 600 nm using an ELISA plate reader (Epoch, BioTek, Winooski, VT, USA) and the minimum inhibitory concentration (MIC) was determined.
As described in the previous section, the MIC and MBC values of antibiotics employed in this study were determined against subjected bacterial strains via preparing different concentrations of each antibiotic.

Vero cells = assay type: cell-based; details: 24 h
Method: Vero cells were seeded at 5 × 10^3 cells per well in flat-bottomed 96-well plates, and the plate was incubated for 18–24 h at 37 °C under 5% CO2 to allow cell attachment on the bottom of the plates. Next day, different concentrations of the peptide were prepared as a gradient using growth medium as the diluent (150, 200, 250, 300, 400, 500, and 600 µM). The plates were incubated for 24 h at 37 °C under 5% CO2. Next, 30 μL (2.5 g/L) MTT solutions were added to all wells and the plates were incubated for 4–6 h. After incubation, the MTT-Peptide solution was removed and a 100 μL of DMSO was added to each well and mixed thoroughly by pipetting to dissolve the Formazan crystals at the bottom of the wells until a clear purple color was achieved. The plates were then placed on an ELx808™ Absorbance Microplate Reader (BioTek, Winooski, VT, USA) and the absorbance was measured at λ = 540 nm.

[2] = tested on: Pseudomonas aeruginosa (ATCC 27853); assay type: cell-based; details: ATCC 27853, 24 h
Source text: as §1, §2, §3

[3] = tested on: Escherichia coli (ATCC 25922); assay type: cell-based; details: ATCC 25922, 24 h
Source text: as §1, §2, §3

[4] = tested on: Escherichia coli (ATCC 35218); assay type: cell-based; details: ATCC 35218, 24 h
Source text: as §1, §2, §3

[5] = tested on: Enterococcus faecalis (ATCC BAA-2316); assay type: cell-based; details: ATCC BAA-2316, 24 h
Source text: as §1, §2, §3

[6] = tested on: S. aureus (ATCC 33591) biofilm; assay type: cell-based, Staphylococcus aureus; details: for Viable Biofilm Cells (%): 4 h treatment 37 °C, 8 h recovery, colony count
Method: Biofilm formation relied on a published protocol employing the Calgary biofilm device (Innovotech, Edmonton, AB, Canada). Briefly, S. aureus (ATCC 33591) bacterial strain was incubated in MHB and cultures were diluted in the same medium to achieve a concentration of 10^5 CFU/mL. Next, diluted bacterial suspension (150 µL) was added to the sterile 96 peg-lids on which biofilm cells can build up. Negative control lanes were prepared by adding 150 µL MHB to six wells. And then the pegs were incubated for 14–16 h under rotation of 125 rpm at 37 °C to allow biofilm formation on the purpose designed pegs. The pegs were rinsed twice with phosphate-buffered saline (PBS) to remove planktonic cells as a washing step. Each peg-lid was then transferred into a “challenge 96-well microtiter plate” containing 200 μL of different peptides concentrations and the peg-lids containing the biofilms were incubated for four hours at 37 °C under rotation at 125 rpm. After biofilm treatment with the challenge plate, the biofilms were re-washed twice with PBS then transferred into the recovery plate for eight hours. The minimum biofilm eradication concentration MBEC value is defined as the minimum concentration needed to inhibit the re-growth of biofilms after four hours of peptide treatment, washing twice with PBS and incubating in pre-sterilized MHB (recovery plate) for 8 h, using an ELISA plate reader λ = 600 nm. Additionally, the biofilms were assessed for their minimum bactericidal concentration (MBECb), this assay was conducted similar to MBC assay (see Section 2.4.1). MBECb parameter is defined as the lowest concentration able to eradicate 3log^10 of the viable microorganisms in a biofilm (99.9% killing) after 8 h of incubation in recovery plates using the colony count method.

Compound: N=C(N)NCCC[C@H](NC(=O)[C@H](Cc1ccc(-c2ccccc2)cc1)NC(=O)[C@H](CCCNC(=N)N)NC(=O)[C@H](Cc1ccc(-c2ccccc2)cc1)NC(=O)[C@@H](N)CCCNC(=N)N)C(=O)O [UP-5] (H-R[Bip]R[Bip]R-OH)
- MBC Value [1]: 10 µM
- MIC Value [1]: 10 µM
- pIC50 (Vero cells): < 3.60
- MBC Value [2]: 65 µM
- MIC Value [2]: 65 µM
- MBC Value [3]: 55 µM
- MIC Value [3]: 55 µM
- MBC Value [4]: 60 µM
- MIC Value [4]: 60 µM
- MBC Value [5]: 70 µM
- MIC Value [5]: 70 µM
- MBEC value (minimum biofilm eradication concentration) ([6]; ATCC 33591, 4 h): 20 µM
- MBCb (MBECb), minimum bactericidal concentration against biofilm cells ([6]; ATCC 33591, 8 h): 20 µM
- Viable Biofilm Cells (%) ([6]; peptide concentration 10 μM): 0.35%
- Viable Biofilm Cells (%) ([6]; peptide concentration 20 μM): 0.108%
- Viable Biofilm Cells (%) ([6]; peptide concentration 30 μM): 0.054%
- Viable Biofilm Cells (%) ([6]; peptide concentration 40 μM): 0%
- Viable Biofilm Cells (%) ([6]; peptide concentration 60 μM): 0%
- Viable Biofilm Cells (%) ([6]; peptide concentration 80 μM): 0%
- Viable Biofilm Cells (%) ([6]; peptide concentration 100 μM, compared to untreated biofilm): 0%
